{
  "source": "patent US8309324B2",
  "about": "“Promoters and proteins from Clostridium thermocellum and uses thereof” (University of Rochester, priority 2004, dated 2012)",
  "key": {"[1]": {"system": "celC, glyR3, licA, orf4, manB and celT transcripts", "assay": "RT-qPCR, inducibility of gene expression in C. thermocellum grown on different substrates", "format": "cell-based, Clostridium thermocellum", "details": "substrate 0.5%, time course of 50 hrs, compared with 1-3 linked sugars, FIG. 2", "experimental": "FIG. 2 is a graph showing RT-qPCR results detailing the inducibility of expression of celC, glyR3 and licA when Clostridium thermocellum is grown on a 1-3 linked sugar: lichenan, laminarin and laminaribiose, compared to the 1-4 linked sugar, cellobiose. The bacterium was grown on the substrates for a time course of 50 hrs. Each 10 hours a sample was taken and the RNA harvested, DNase I digested, subjected to reverse transcription, and then qPCR. Columns left to right for each substrate represent relative transcription levels of celC, glyR3, licA orf4 manB and ceIT, respectively. The qPCR levels are all relative to the 16S transcript in C. thermocellum.\nTo test the effect of growth substrate on the inducibility of the expression of celC, glyR3, licA, orf4, manB, and celT genes in C. thermocellum, C. thermocellum was grown on substrates containing either a 1-4 linked sugar (cellobiose) or a 1-3 linked sugar (laminarin, lichenan, and laminaribiose). RT-qPCR was carried out on the cells to determine the level of 16S transcripts of the genes, as follows.\nThe bacterium was grown on the substrates for a time course of 50 hrs. Each 10 hrs a sample was taken. Cultures were centrifuged to collect the cells. Everything used from this point forward was RNase free. […] RNA concentration was measured using a Hitachi U-2000 spectrophotometer at 260/280 nm. […]"}, "[2]": {"biological_target": "T1, CelR (Thermobifida fusca, UniProt O87590)", "T1 sequence (O87590 1-340)": "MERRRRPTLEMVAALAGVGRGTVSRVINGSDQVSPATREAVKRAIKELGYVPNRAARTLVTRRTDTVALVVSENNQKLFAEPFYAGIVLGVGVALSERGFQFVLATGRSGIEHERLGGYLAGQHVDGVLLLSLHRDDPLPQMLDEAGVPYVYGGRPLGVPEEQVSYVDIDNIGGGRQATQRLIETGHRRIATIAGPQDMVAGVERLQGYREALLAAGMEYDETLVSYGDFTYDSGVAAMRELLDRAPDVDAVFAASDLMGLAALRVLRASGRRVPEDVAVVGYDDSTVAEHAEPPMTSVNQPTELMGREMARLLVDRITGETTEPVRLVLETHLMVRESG", "details": "Spiridonov et al. 1999; cited from earlier work"}, "[3]": {"system": "rGlyR3-celC promoter complex", "assay": "EMSA, effect of sugars on the rGlyR3-celC promoter complex", "format": "binding, Clostridium thermocellum", "details": "for effect of sugar on the rGlyR3-celC promoter binding reaction: 15 mM sugar, 5 ng 100 bp celC promoter DNA, 0.5 ng rGlyR3, FIG. 17", "experimental": "The EMSA analyzing biotin labeled DNA fragments. Lane 1, no protein and 5 ng DNA; Lanes 2-12 contain 5 ng 100 bp celC promoter DNA, 0.5 ng rGlyR3 and 15 mM of their respected sugars.\n(§1) All EMSA experiments described herein were performed using a 4% polyacrylamide gel and Tris-Borate-EDTA buffer. EMSA reactions all contained: 500 ng poly (dI-dC), 1× Lightshift EMSA kit binding buffer (Pierce), 1× Lightshift loading dye (Pierce), optimized amounts of DNA probe, protein, and saccharides as specified in figure legends.\nThe binding of the rGlyR3 protein was inhibited by laminaribiose. Several sugars were tested to see if they could inhibit the rGlyR3-celC promoter complex."}, "[4]": {"system": "celC transcription", "assay": "In vitro transcription assay (RT-qPCR readout)", "format": "biochemical, Clostridium thermocellum", "experimental": "The baseline transcription mixture consists of: rNTPs, transcription buffer, 1 ug of 850 bp DNA containing celC and its promoter region, 10 ul C. thermocellum cell lysate (grown on cellobiose). After transcription, the RNA was harvested, DNase I digested, used in a Reverse Transcriptase reaction and then in qPCR.\nA DNA template for in vitro transcription was created using the following primers (SEQ ID NO:30): Invt-F-[…]; (SEQ ID NO:31): Invt-R-CCAGTGGGCTTTCTGATGC) to amplify the 200 bp celC promoter along with 650 bp of the celC gene. PCR used a standard reaction for Extensor Hi-Fidelity Enzyme with genomic DNA as template. Each in vitro transcription assay contained: 10 μl C. thermocellum cell lysate (cellobiose grown culture), 2 μl RNase Out (Invitrogen, Carlsbad, Calif.), 1× RNA polymerase buffer, 1 μg of DNA template, 25 nM rNTP's, differing amounts of rGlyR3, differing amounts of laminaribiose, and DEPC water to a volume of 50 μl. The reactions were incubated at 60° C. for 50 minutes. After incubation the resulting RNA was isolated using the previously described Trizol method. The isolated RNA was subjected to DNase I digestion and a standard reverse transcription reaction as described above. Using the qPCR protocol already outlined, with primers for celC, it was possible to show the amount of transcript created for each reaction."}, "[5]": {"system": "rGlyR3-celC promoter complex", "assay": "EMSA rGlyR3 binding site competition assay", "parameters": "species or system Clostridium thermocellum", "details": "100x unlabeled competitor, 0.5 ng rGlyR3, FIG. 16", "experimental": "FIG. 16 is a gel showing the results of an EMSA rGlyR3 binding site competition assay. A gel shift competition assay was used to analyze specificity of binding and confirm the DNase I footprint results. All lanes contain biotin labeled 100 bp celC promoter fragment containing the binding site. Lane 1, no protein; Lane 2, 0.5 ng rGlyR3; Lane 3, 0.5 ng rGlyR3 and 100× unlabeled 18 bp binding site; Lane 4, 0.5 ng rGlyR3 and 100 × control fragment (18 bp piece of original 100 bp region, contains no part of putative binding site).\nas §1\nThe 18 bp sequence corresponds to (SEQ ID NO:36): AATGAACGC GCGTACATT."}, "[6]": {"system": "celC promoter region", "assay": "EMSA, binding of rGlyR3 to the celC promoter region", "parameters": "species or system Clostridium thermocellum", "experimental": "Gel Shift, or Band Shift Assay, or Electrophoretic Mobility Shift Assay (EMSA) is a technique for studying gene regulation and determining protein:DNA interactions. The assay is based on the observation that complexes of protein and DNA migrate through a non-denaturing polyacrylamide gel more slowly than free DNA fragments or double-stranded oligonucleotides. The gel shift assay is carried out by first incubating a protein(s) (such as nuclear or cell extract) with a 32^P end-labeled DNA fragment containing the putative protein binding site. The reaction products are then analyzed on a non-denaturing polyacrylamide gel. The specificity of the DNA-binding protein for the putative binding site is established by competition experiments using DNA fragments or oligonucleotides containing a binding site for the protein of interest or other unrelated DNA sequences.\nas §1\nEMSA gels were electroblotted onto Biodyne B membrane (Pall Corporation). Signal development was accomplished using the Lightshift Chemiluminescent EMSA kit protocol (Pierce). Kodak Biomax film captured the luminescence for viewing.\nProbes for EMSA were created using PCR with Thermostart Taq (ABgene) as a polymerase. The standard Thermostart protocol was used with varying extension times (1 kb/minute rule always followed) and different annealing temperatures (57° C.-62° C.). Primers were synthesized with a 5′ biotin label by Invitrogen (Carlsbad, Calif.). Primers (5′-3′) used: […]\nFor probes that contained just the 18 bp binding site, complementary DNA fragments were synthesized and annealed by heating to 94 C and then cooling:\n(§2) The dissociation constant was determined as the concentration of GlyR3 needed to shift 50% of the celC promoter region in the EMSA."}, "[7]": {"system": "200 bp fragment of the celS structure gene", "assay": "EMSA, rGlyR3 with celS structure gene fragment as probe", "format": "binding, Clostridium thermocellum", "details": "FIG. 11, lanes 5 and 6", "experimental": "as §1, §2"}},
  "note": "Entries after “also recorded” stand apart in the source; their conditions may differ.",
  "data": [
    {"molecule": "O=C[C@H](O)[C@@H](O)[C@H](O[C@@H]1O[C@H](CO)[C@@H](O)[C@H](O)[C@H]1O)[C@H](O)CO", "note": "[cellobiose]", "values": [
      {"measurement": "transcript level of the gene cluster relative to 16S transcript", "setting": "[1]", "result": "less of the transcript containing the genes is produced"},
      {"measurement": "concentration inhibiting binding of CelR to its target DNA sequence", "setting": "[2]", "result": "0.2 to 0.5", "unit": "mM"}
    ]},
    {"molecule": "OC[C@H]1O[C@@H](OC[C@H]2OC(O)[C@H](O)[C@@H](O)[C@@H]2O)[C@H](O)[C@@H](O)[C@@H]1O", "note": "(some centres unmarked) [gentibiose]", "values": [
      {"measurement": "effect of sugar on the rGlyR3-celC promoter binding reaction", "setting": "[3]", "result": "no effect"}
    ]},
    {"molecule": "OC[C@H]1O[C@@H](O[C@H]2[C@H](O)[C@@H](O)C(O)O[C@@H]2CO)[C@H](O)[C@@H](O)[C@H]1O", "note": "(some centres unmarked) [lactose]", "values": [
      {"measurement": "effect of sugar on the rGlyR3-celC promoter binding reaction", "setting": "[3]", "result": "no effect"}
    ]},
    {"molecule": "OC[C@H]1O[C@@H](O[C@H]2[C@H](O)[C@@H](CO)OC(O)[C@@H]2O)[C@H](O)[C@@H](O)[C@@H]1O", "note": "(some centres unmarked) [laminaribiose]", "values": [
      {"measurement": "effect on celC transcription in presence of GlyR3", "setting": "[4]; 5 mM laminaribiose in addition to 400 ng GlyR3, FIG. 3", "result": "transcription returned to baseline levels or greater"},
      {"measurement": "effect of sugar on the rGlyR3-celC promoter binding reaction", "setting": "[3]", "result": "severely reduced the formation of the DNA-protein complex"},
      {"measurement": "effect on binding of GlyR3 to the 18 bp binding site", "setting": "[3]; FIG. 15", "result": "inhibited"},
      {"measurement": "effect of laminaribiose on GlyR3-100 bp celC promoter interaction", "setting": "[3]; GlyR3 0.5 ng, DNA 5 ng, increasing laminaribiose, FIG. 9", "result": "inhibited; also recorded: DNA-protein complex diminished as the concentration of laminaribiose increased"}
    ]},
    {"molecule": "OC[C@H]1O[C@H](O[C@H]2[C@H](O)[C@@H](O)[C@H](O)O[C@@H]2CO)[C@H](O)[C@@H](O)[C@@H]1O", "note": "[maltose]", "values": [
      {"measurement": "effect of sugar on the rGlyR3-celC promoter binding reaction", "setting": "[3]", "result": "no effect"}
    ]},
    {"molecule": "OC[C@H]1O[C@@](CO)(O[C@H]2O[C@H](CO)[C@@H](O)[C@H](O)[C@H]2O)[C@@H](O)[C@@H]1O", "note": "[sucrose]", "values": [
      {"measurement": "effect of sugar on the rGlyR3-celC promoter binding reaction", "setting": "[3]", "result": "no effect"}
    ]},
    {"molecule": "unlabeled 18 bp binding site: 18 bp near perfect palindromic sequence of the celC promoter, SEQ ID NO:36: AATGAACGC GCGTACATT (DNA AATGAACGCGCGTACATT; listed as DNA, chemistry not given here)", "values": [
      {"measurement": "competition for the shifted band of the 100 bp celC promoter fragment", "setting": "[5]", "result": "able to compete out the shifted band"}
    ]},
    {"molecule": "GlyR3: C. thermocellum LacI-like repressor protein, amino acid sequence SEQ ID NO:3; rGlyR3 is the recombinant form expressed in E. coli (protein, C. thermocellum, rGlyR3 is the recombinant form expressed in E. coli) MTSEEIAKLCGVSRATVSRVINNSPNVKEETRQKILAVIKEKNYVPIAPARRLAGIDSNIIGLFVLDIDISESKSRVSESTYFSRLINLIIDQANNFGFQVLVSIITSQKQLSEIRNLFMSRTIFSGIFIGAFNDEIQLDDDIIMQHPTIIIDRQSERMVKKPNRLVVNLDNFEGAYNATQFLIKLGHTRIGHISGDLRKLSGIERYEGYKKALEDAGLGFDKNLVREGNFLDDSGYRLAREILKENVTAIFCANDVMAISAIKAIKETGLSVPDDISVIGFDNTAIGNYIMPALTTVNAPLEHIAEACIESLKYFCEHKHFKQKEIRVKTDLIIRDSTKRALEF", "values": [
      {"measurement": "effect on transcription of the celC gene in vitro", "setting": "[4]; 400 ng GlyR3, FIG. 3", "result": "can inhibit transcription"},
      {"measurement": "binding to first and second halves of the celC promoter (band shift)", "setting": "[6]; 0.5 ng rGlyR3, 5 ng of each probe, FIG. 11", "result": "creates a shifted band with both probes"},
      {"measurement": "binding to the 200 bp celC promoter region", "setting": "[6]; 1 ng protein, 5 ng DNA, FIG. 12", "result": "binds"},
      {"measurement": "binding to a control fragment of 18 bp located within the celC promoter", "setting": "[6]; FIG. 13", "result": "no binding"},
      {"measurement": "binding to the 18 bp DNA fragment (binding site)", "setting": "[6]; FIG. 13", "result": "dose dependent binding"},
      {"measurement": "binding to 200 bp fragment of the celS structure gene", "setting": "[7]", "result": "does not bind"}
    ]}
  ]
}
